# Tests used:
# [1] = system: breast adenocarcinoma cell line MCF-7; experiment: In vitro cytotoxicity of paclitaxel derivatives (macroscopic colony formation); assay type: cell-based
# Experimental: Taxol derivatives were assayed for their cytotoxic activities on tumor cell lines in vitro. The breast adenocarcinoma cell line MCF-7 was chosen as a model for the cytotoxicity assay. The cell line was maintained in RPMI 1640 medium supplemented with 10% fetal bovine serum. For the cell survival experiments, a number of 100 mm petri dishes were plated with 5×10^5 cells. Exponentially growing cells were exposed to paclitaxel or paclitaxel derivatives at various concentrations 24 hours later. After exposure to paclitaxel and derivatives for various times, the cells were rinsed, trypsinized and washed with medium. The cells were resuspended as single cell suspensions, counted with a particle counter, plated and incubated for macroscopic colony formation. Following a one to two week incubation, the colonies were fixed with methanol/acetic acid, stained with crystal violet and colonies with more than 50 cells counted. […] The survival was reported as the fraction of cells surviving after exposure to paclitaxel or derivatives thereof. As an example, the cytotoxicity of the derivative synthesized in Example 9, i.e., 3'-Desphenyl-3'-(4-nitrophenyl)-N-debenzoyl-N-(t-butoxycarbonyl)-10-deacetyltaxol, is reported herein.
# [2] = system: tubulin; experiment: In vitro microtubule assembly of paclitaxel derivatives (turbidity, absorbance at 350 nm); assay type: biochemical; conditions: for absorbance (at 350 nm), tubulin polymerization at 10° C. / absorbance (at 350 nm), tubulin polymerization at 37° C.: 10 μM tubulin, 10 μM taxol or derivative; for absorbance (at 350 nm), tubulin polymerization at 10° C.: pH 6.8, 10° C.; for absorbance (at 350 nm), tubulin polymerization at 37° C.: pH 6.8, 37° C.
# Excerpt: Paclitaxel inhibits cell replication in the mitotic phase of the cell cycle by promoting polymerization and stabilization of microtubules. Microtubules are polymers of tubulin in dynamic equilibrium with tubulin heterodimers that are composed of alpha and beta protein subunits. Unlike other antimicrotubule agents, such as the vinca alkaloids (that induce microtubule disassembly), paclitaxel shifts the equilibrium towards microtubule assembly. Paclitaxel-induced microtubules are excessively stable, thereby inhibiting the dynamic reorganization of the microtubule network. The cytotoxic properties of paclitaxel are caused by its unique disruptive effects on microtubules. Thus the activity of taxol or taxol analogs and derivatives may be assessed in vitro by their ability to polymerize tubulin into microtubules (Chaudhary et al. Journal of the American Chemical Society 116:4097-4098 (1994). The polymerization of tubulin is accompanied by a concomitant increase in solution turbidity associated with the formation of microtubules. This increase in turbidity can be assayed spectrophotometrically.
# Thus, 10 μM tubulin was dissolved in 0.1M MES buffer containing 100 μM GTP and 0.5 mM MgCl2 with a final pH of 6.8. 10 μM tubulin was added to the buffer. 10 μM of taxol (or taxol derivatives) was added to the buffer at 0° C. and the absorbance of the sample measured at 350 nm as the sample temperature increased rapidly to 37° C. with the aid of a circulating water bath connected to the sample chamber of the spectrophotometer. The maximum absorbance of the sample was measured and compared to that of taxol as a control to determine any change in activity of the paclitaxel derivatives.
# [3] = system: microtubule; conditions: compared with paclitaxel; cited from earlier work
# [4] = compared with paclitaxel; cited from earlier work
# [5] = system: cultured mammalian cells; conditions: cited from earlier work
# [6] = system: central nervous system; conditions: large-scale clinical trials; cited from earlier work
# [7] = system: rodent tumors; conditions: some rodent tumors; cited from earlier work
# [8] = intravenous infusion every 2-3 weeks, patients; cited from earlier work
# [9] = system: grade III human astrocytoma cell line, G18; conditions: paclitaxel pretreatment and gamma irradiation; cited from earlier work
# [10] = system: HL-60 human leukemic cell line; conditions: cited from earlier work
# [11] = system: human breast and lung cell lines; conditions: cited from earlier work
# [12] = cited from earlier work
# [13] = system: three human ovarian cancer cell lines; conditions: cited from earlier work
# [14] = system: cervical carcinoma cell lines; conditions: cited from earlier work
molecule,measurement,setting,value
3'-Desphenyl-3'-(4-nitrophenyl)-N-debenzoyl-N-(isopropoxycarbonyl)-10-deacetyltaxol [Example 9],surviving fraction of MCF-7 cells,"[1]; 10 nM, 24 hours",2×10^-3
same,increase in cytotoxicity over unmodified taxol,"[1]; MCF-7, 10 nM, 24 hours",30 fold
CC(=O)O[C@@]12CO[C@@H]1C[C@H](O)[C@@]1(C)C(=O)[C@H](O)C3=C(C)[C@@H](OC(=O)C(O)C(NC(=O)OC(C)(C)C)c4ccc([N+](=O)[O-])o4)C[C@@](O)([C@@H](OC(=O)c4ccccc4)[C@H]21)C3(C)C (some centres unmarked) [Example 6],"absorbance (at 350 nm), tubulin polymerization at 10° C.",[2],0.37
same,"absorbance (at 350 nm), tubulin polymerization at 37° C.",[2],0.71
same,tubulin polymerization activity relative to taxol (ratio of absorbances),[2]; 37° C.,2.4 times that of taxol
same,activity in tubulin assembly compared with unmodified taxol,[2]; both at low temperature and at physiological temperatures,substantially more active in tubulin assembly than unmodified taxol
CC(=O)O[C@@]12CO[C@@H]1C[C@H](O)[C@@]1(C)C(=O)[C@H](O)C3=C(C)[C@@H](OC(=O)[C@H](O)[C@@H](NC(=O)OC(C)(C)C)c4ccccc4)C[C@@](O)([C@@H](OC(=O)c4ccccc4)[C@H]21)C3(C)C [docetaxel],microtubule assembly activity,[3],more active than paclitaxel
same,cytotoxicity,[4],more active than paclitaxel
COCC(O)Cn1ccnc1[N+](=O)[O-] (centres unmarked) [misonidazole],"hypoxic-cell sensitization, cultured mammalian cells",[5],excellent hypoxic-cell sensitizer
same,toxicity to the central nervous system,[6],toxic to the central nervous system
same,"hypoxic-cell sensitization, rodent tumors",[7],excellent hypoxic-cell sensitizer
CC(=O)O[C@H]1C(=O)[C@@]2(C)[C@H]([C@H](OC(=O)c3ccccc3)[C@]3(O)C[C@H](OC(=O)[C@H](O)[C@@H](NC(=O)c4ccccc4)c4ccccc4)C(C)=C1C3(C)C)[C@]1(OC(C)=O)CO[C@@H]1C[C@@H]2O [paclitaxel],serum half-life,[8],up to 19 h
same,"enhancement of radiosensitivity, G18",[9],significant enhancement of radiosensitivity
same,"radiosensitization, HL-60",[10],radiosensitization
same,"enhancement in radiosensitization, human breast and lung",[11],have not observed an enhancement in radiosensitization
same,in vivo radiopotentiation,[12],potent in vivo radiopotentiating agent
same,"radiosensitization, human ovarian cancer cell lines",[13],radiosensitization
same,viability at 0.01 µM,"[1]; Homo sapiens, MCF7, 24 h, read-out: surviving fraction of MCF-7 cells",6%
same,"absorbance (at 350 nm), tubulin polymerization at 10° C.",[2],0.0
same,"absorbance (at 350 nm), tubulin polymerization at 37° C.",[2],0.295
same,polymerization of tubulin at 10° C.,"[2]; taxol (10 μM), 10° C.",would not polymerize tubulin
same,polymerization of tubulin at 37° C.,"[2]; taxol (10 μM), 37° C.",would promote polymerization
same,"enhancement in radiosensitization, cervical carcinoma",[14],have not observed an enhancement in radiosensitization
